In patent publication US4525589A, “Isoquinolinesulfonyl derivatives” (Asahi Kasei Kogyo Kabushiki Kaisha, priority 1981, dated 1985):
Like-named read-outs stand apart in the source and are kept apart here.

Tested on: mesenteric artery
Assay: Relaxation of mesenteric artery (helical strips contracted with KCl, organ bath)
Parameters: species or system rabbit (home bred, Japanese species)
Details: Oryctolagus cuniculus, read-out: Relaxation of Mesenteric Artery ED50
Experimental: After a home bred rabbit of a Japanese species weighing about 3 Kg was subjected to bloodletting, resulting in death and then to abdominal incision, the mesenteric artery was taken out, cut into helicoids of 2 mm×25 mm and suspended in a 20 ml organ bath filled with a Krebs-Henseleit solution into which a mixed gas of 95% by volume of O2 and 5% by volume of CO2 was introduced and one end of the artery was connected with an isometric transducer. When a load of 1.5 g was applied to the artery, the contraction and the relaxation of the artery were recorded as a weight on the transducer (a product of Nippon Koden K.K., Japan, "FD Pickup TB-912T"). The relaxation of the mesenteric artery was observed by adding the isoquinolinesulfonyl derivatives and their pharmaceutically acceptable acid addition salts of this invention to the mesenteric artery at the condition of about one half of the maximum contraction with KCl at a KCl concentration of 15~20 mM. When the complete relaxation of the mesenteric artery was designated 100%, the concentration of the isoquinolinesulfonyl derivatives and their pharmaceutically acceptable acid addition salts which brought about a relaxation of 50% is shown in Table 12.

[1] = concentration for 50% relaxation, KCl 15~20 mM contraction

EC50 [1] [µM] | Compound | EC50 [µM]
7 | NCCCNS(=O)(=O)c1cccc2cnccc12 [Compound (2), N-(3-aminopropyl)-5-isoquinolinesulfonamide] | –
10 | NCCCCCCNS(=O)(=O)c1cccc2cnccc12 [Compound (4), N-(6-aminohexyl)-5-isoquinolinesulfonamide] | –
14 | NCCCCCCCCCCNS(=O)(=O)c1cccc2cnccc12 [Compound (5), N-(10-aminodecyl)-5-isoquinolinesulfonamide] | –
10 | CC(CN)NS(=O)(=O)c1cccc2cnccc12 (stereo not drawn) [Compound (6), N-(2-amino-1-methylethyl)-5-isoquinolinesulfonamide] | –
21 | CCC(CN)NS(=O)(=O)c1cccc2cnccc12 (stereo not drawn) [Compound (7), N-(1-aminomethylpropyl)-5-isoquinolinesulfonamide] | –
19 | CCCCC(CN)NS(=O)(=O)c1cccc2cnccc12 (stereo not drawn) [Compound (8), N-(1-aminomethylpentyl)-5-isoquinolinesulfonamide] | –
15 | CC(N)CNS(=O)(=O)c1cccc2cnccc12 (stereo not drawn) [Compound (9), N-(2-aminopropyl)-5-isoquinolinesulfonamide] | –
28 | CC(C)C(N)CNS(=O)(=O)c1cccc2cnccc12 (stereo not drawn) [Compound (11), N-(2-amino-3-methylbutyl)-5-isoquinolinesulfonamide] | –
18 | NCC(NS(=O)(=O)c1cccc2cnccc12)c1ccccc1 (stereo not drawn) [Compound (12), N-(2-amino-1-phenylethyl)-5-isoquinolinesulfonamide] | –
25 | NC(CNS(=O)(=O)c1cccc2cnccc12)c1ccccc1 (stereo not drawn) [Compound (13), N-(2-amino-2-phenylethyl)-5-isoquinolinesulfonamide] | –
12 | CNCCNS(=O)(=O)c1cccc2cnccc12 [Compound (14), N-(2-methylaminoethyl)-5-isoquinolinesulfonamide] | –
10 | CC(C)NCCNS(=O)(=O)c1cccc2cnccc12 [Compound (16), N-(2-isopropylaminoethyl)-5-isoquinolinesulfonamide] | –
10 | CN(C)CCCNS(=O)(=O)c1cccc2cnccc12 [Compound (17), N-(3-dimethylaminopropyl)-5-isoquinolinesulfonamide] | –
30 | CCN(CC)CCCNS(=O)(=O)c1cccc2cnccc12 [Compound (18), N-(3-diethylaminopropyl)-5-isoquinolinesulfonamide] | –
42 | O=S(=O)(NCCCN1CCCCC1)c1cccc2cnccc12 [Compound (20), N-(3-piperidinopropyl)-5-isoquinolinesulfonamide] | –
50 | O=S(=O)(NCCCN1CCOCC1)c1cccc2cnccc12 [Compound (21), N-(3-morpholinopropyl)-5-isoquinolinesulfonamide] | –
42 | CN(CCCNS(=O)(=O)c1cccc2cnccc12)C1CCCCC1 [Compound (22), N-[3-(N-methyl-N-cyclohexylamino)propyl]-5-isoquinolinesulfonamide] | –
4 | CN(CCCNS(=O)(=O)c1cccc2cnccc12)c1ccccc1 [Compound (23), N-[3-(N-methyl-N-phenylamino)propyl]-5-isoquinolinesulfonamide] | –
17 | CN(CCCNS(=O)(=O)c1cccc2cnccc12)Cc1ccccc1 [Compound (24), N-[3-(N-methyl-N-benzylamino)propyl]-5-isoquinolinesulfonamide] | –
8.8 | CCNS(=O)(=O)c1cccc2cnccc12 [Compound (26), N-ethyl-5-isoquinolinesulfonamide] | –
21 | CCCCNS(=O)(=O)c1cccc2cnccc12 [Compound (27), N-n-Butyl-5-isoquinolinesulfonamide] | –
19 | CC(C)CNS(=O)(=O)c1cccc2cnccc12 [Compound (28), N-isobutyl-5-isoquinolinesulfonamide] | –

EC50 [1] [µM] | Compound | EC50 [µM]
13 | CN(C)S(=O)(=O)c1cccc2cnccc12 [Compound (29), N,N-dimethyl-5-isoquinolinesulfonamide] | –
8.9 | CCN(CC)S(=O)(=O)c1cccc2cnccc12 [Compound (30), N,N-diethyl-5-isoquinolinesulfonamide] | –
28 | CCCCN(CCCC)S(=O)(=O)c1cccc2cnccc12 [Compound (31), N,N-di-n-butyl-5-isoquinolinesulfonamide] | –
16 | O=S(=O)(c1cccc2cnccc12)N1CCCCC1 [Compound (32), 1-(5-isoquinolinesulfonyl)piperidine] | –
10 | O=S(=O)(c1cccc2cnccc12)N1CCOCC1 [Compound (34), 1-(5-isoquinolinesulfonyl)morpholine] | –
– | CC1CNCCN1S(=O)(=O)c1cccc2cnccc12 (stereo not drawn) [Compound (38), 1-(5-isoquinolinesulfonyl)-2-methylpiperazine] | 5
9.5 | CC1CN(S(=O)(=O)c2cccc3cnccc23)CC(C)N1 (stereo not drawn) [Compound (39), 1-(5-isoquinolinesulfonyl)-3,5-dimethylpiperazine] | –
1.5 | CC1NCCN(S(=O)(=O)c2cccc3cnccc23)C1C (stereo not drawn) [Compound (41), 1-(5-isoquinolinesulfonyl)-2,3-dimethylpiperazine] | –
18 | CCN1CCN(S(=O)(=O)c2cccc3cnccc23)CC1 [Compound (42), 1-(5-isoquinolinesulfonyl)-4-ethylpiperazine] | –
6.1 | CCC1CN(S(=O)(=O)c2cccc3cnccc23)CCN1 (stereo not drawn) [Compound (43), 1-(5-isoquinolinesulfonyl)-3-ethylpiperazine] | –
8.6 | CCCN1CCN(S(=O)(=O)c2cccc3cnccc23)CC1 [Compound (44), 1-(5-isoquinolinesulfonyl)-4-n-propylpiperazine] | –
7.5 | CC(C)C1CN(S(=O)(=O)c2cccc3cnccc23)CCN1 (stereo not drawn) [Compound (45), 1-(5-isoquinolinesulfonyl)-3-isopropylpiperazine] | –
24 | CC(C)CN1CCN(S(=O)(=O)c2cccc3cnccc23)CC1 [Compound (47), 1-(5-isoquinolinesulfonyl)-4-isobutylpiperazine] | –
1.8 | CCC1CN(S(=O)(=O)c2cccc3cnccc23)C(CC)CN1 (stereo not drawn) [Compound (48), 1-(5-isoquinolinesulfonyl)-2,5-diethylpiperazine] | –
10 | CC(C)CC1CN(S(=O)(=O)c2cccc3cnccc23)C(C)CN1 (stereo not drawn) [Compound (49), 1-(5-isoquinolinesulfonyl)-2-methyl-5-isobutylpiperazine] | –
16 | CC1CNC(Cc2ccccc2)CN1S(=O)(=O)c1cccc2cnccc12 (stereo not drawn) [Compound (50), 1-(5-isoquinolinesulfonyl)-2-methyl-5-benzylpiperazine] | –
7 | O=S(=O)(c1cccc2cnccc12)N1CCNC(c2ccccc2)C1 (stereo not drawn) [Compound (53), 1-(5-isoquinolinesulfonyl)-3-phenylpiperazine] | –
11 | O=S(=O)(c1cccc2cnccc12)N1CCNC(Cc2ccccc2)C1 (stereo not drawn) [Compound (54), 1-(5-isoquinolinesulfonyl)-3-benzylpiperazine] | –
9 | O=S(=O)(c1cccc2cnccc12)N1CCN(c2ccccc2)CC1 [Compound (55), 1-(5-isoquinolinesulfonyl)-4-phenylpiperazine] | –
23 | O=S(=O)(c1cccc2cnccc12)N1CCN(Cc2ccccc2)CC1 [Compound (56), 1-(5-isoquinolinesulfonyl)-4-benzylpiperazine] | –
12 | O=S(=O)(c1cccc2cnccc12)N1CCN(CCc2ccccc2)CC1 [Compound (57), 1-(5-isoquinolinesulfonyl)-4-phenethylpiperazine] | –
40 | O=C(c1ccccc1)N1CCN(S(=O)(=O)c2cccc3cnccc23)CC1 [Compound (58), 1-(5-isoquinolinesulfonyl)-4-benzoylpiperazine] | –

Compound | EC50 [1] [µM] | EC50 [µM]
NCCCCNS(=O)(=O)c1cccc2cnccc12 [Compound (3), N-(4-aminobutyl)-5-isoquinolinesulfonamide] | 11 | –
CCCCN(CCCC)CCCNS(=O)(=O)c1cccc2cnccc12 [Compound (19), N-(3-di-n-butylaminopropyl)-5-isoquinolinesulfonamide] | 17 | –
CNS(=O)(=O)c1cccc2cnccc12 [Compound (25), N-methyl-5-isoquinolinesulfonamide] | 13 | –
O=S(=O)(c1cccc2cnccc12)N1CCCC1 [Compound (33), 1-(5-isoquinolinesulfonyl)pyrrolidine] | 11 | –
CN1CCN(S(=O)(=O)c2cccc3cnccc23)CC1 [Compound (36), 1-(5-isoquinolinesulfonyl)-4-methylpiperazine] | 7.7 | –
CC1CN(S(=O)(=O)c2cccc3cnccc23)CCN1 (stereo not drawn) [Compound (37), 1-(5-isoquinolinesulfonyl)-3-methylpiperazine] | 4 | –
CC1CN(S(=O)(=O)c2cccc3cnccc23)C(C)CN1 (stereo not drawn) [Compound (40), 1-(5-isoquinolinesulfonyl)-2,5-dimethylpiperazine] | 0.6 | –
CC(C)CC1CN(S(=O)(=O)c2cccc3cnccc23)CCN1 (stereo not drawn) [Compound (46), 1-(5-isoquinolinesulfonyl)-3-isobutylpiperazine] | 6.5 | –
CCCCCCN1CCN(S(=O)(=O)c2cccc3cnccc23)CC1 [Compound (51), 1-(5-isoquinolinesulfonyl)-4-hexylpiperazine] | 19 | –
O=S(=O)(c1cccc2cnccc12)N1CCN(CC=Cc2ccccc2)CC1 [Compound (59), 1-(5-isoquinolinesulfonyl)-4-cinnamylpiperazine] | 6.8 | –
